Test results published in patent publication US11851440B2, “Modulators of eukaryotic initiation factor 2B, compositions and methods” (Denali Therapeutics Inc., priority 2017, dated 2023).
pIC50: −log10 of the molar value. Read-outs that look alike come from different tables or passages of the source.

Tested on: ISR pathway (ATF4 translation)
Experiment: ATF4 Nano Luciferase reporter integrated stress response (ISR) assay in H4 ATF4-NLuc cells
Settings: compound 30 minutes, then 50 um sodium arsenite for 6 hours, luminescence readout
[1] = Homo sapiens, read-out: Activity (IC50), H4 ATF4-NLuc (clone 17) cells

| Compound | pIC50 [1] | pIC50 (read-out: Activity (IC50), H4 ATF4-NLuc (clone 17) cells) |
| --- | --- | --- |
| O=C(COc1ccc(Cl)cc1)NC12CC(c3nnc([C@H]4C[C@@H](COC(F)(F)F)C4)o3)(C1)C2 [Example 86, 2-(4-chlorophenoxy)-N-[3-[5-[3-cis-(trifluoromethoxymethyl)cyclobutyl]-1,3,4-oxadiazol-2-yl]-1-bicyclo[1.1.1]pentanyl]acetamide] | > 6.00 |  |
| O=C(COc1ccc(Cl)cc1)NC12CC(c3nnc([C@H]4C[C@H](COC(F)(F)F)C4)o3)(C1)C2 [Example 87, 2-(4-chlorophenoxy)-N-[3-[5-[3-trans-(trifluoromethoxymethyl)cyclobutyl]-1,3,4-oxadiazol-2-yl]-1-bicyclo[1.1.1]pentanyl]acetamide] |  | > 6.00 |
| O=C(NC12CC(c3nnc([C@H]4C[C@@H](OC(F)(F)F)C4)o3)(C1)C2)OC[C@H]1C[C@@H](OC(F)(F)F)C1 [Example 88, [3-cis-(trifluoromethoxy)cyclobutyl]methyl N-[3-[5-[3-cis-(trifluoromethoxy)cyclobutyl]-1,3,4-oxadiazol-2-yl]-1-bicyclo[1.1.1]pentanyl]carbamate] | > 6.00 |  |
| O=C(CO[C@H]1C[C@@H](COC(F)(F)F)C1)NC12CC(c3nnc([C@H]4C[C@@H](OC(F)(F)F)C4)o3)(C1)C2 [Example 89, N-[3-[5-[3-cis-(trifluoromethoxy)cyclobutyl]-1,3,4-oxadiazol-2-yl]-1-bicyclo[1.1.1]pentanyl]-2-[3-cis-(trifluoromethoxymethyl)cyclobutoxy]acetamide] | > 6.00 |  |
| O=C(COc1ccc(Cl)c(F)c1)NC12CC(c3nnc(C4(F)CN(CC(F)(F)F)C4)o3)(C1)C2 [Example 93, 2-(4-chloro-3-fluoro-phenoxy)-N-[3-[5-[3-fluoro-1-(2,2,2-trifluoroethyl)azetidin-3-yl]-1,3,4-oxadiazol-2-yl]-1-bicyclo[1.1.1]pentanyl]acetamide] | > 6.00 |  |
| O=C(COCCOC(F)(F)F)NC12CC(c3nnc([C@H]4C[C@@H](OC(F)(F)F)C4)o3)(C1)C2 [Example 94, N-[3-[5-[3-cis-(trifluoromethoxy)cyclobutyl]-1,3,4-oxadiazol-2-yl]-1-bicyclo[1.1.1]pentanyl]-2-[2-(trifluoromethoxy)ethoxy]acetamide] | 5.00 to 6.00 |  |
| O=C(CO[C@H]1C[C@H](OC(F)(F)F)C1)NC12CC(c3nnc([C@H]4C[C@@H](OC(F)(F)F)C4)o3)(C1)C2 [Example 95, 2-[3-trans-(trifluoromethoxy)cyclobutoxy]-N-[3-[5-[3-cis-(trifluoromethoxy)cyclobutyl]-1,3,4-oxadiazol-2-yl]-1-bicyclo[1.1.1]pentanyl]acetamide] | > 6.00 |  |
| Cc1nc(C2CC(OC(F)(F)F)C2)cn1C12CC(NC(=O)CO[C@H]3C[C@@H](OC(F)(F)F)C3)(C1)C2 (stereo partly drawn) [Example 96, N-[3-[2-methyl-4-[3-(trifluoromethoxy)cyclobutyl]imidazol-1-yl]-1-bicyclo[1.1.1]pentanyl]-2-[3-cis-(trifluoromethoxy)cyclobutoxy]acetamide] | > 6.00 |  |
| O=C(COCc1cncc(Cl)c1)NC12CC(c3nnc([C@H]4C[C@@H](OC(F)(F)F)C4)o3)(C1)C2 [Example 97, 2-[(5-chloro-3-pyridyl)methoxy]-N-[3-[5-[3-cis-(trifluoromethoxy)cyclobutyl]-1,3,4-oxadiazol-2-yl]-1-bicyclo[1.1.1]pentanyl]acetamide] | 5.00 to 6.00 |  |
| O=C(NC12CC(c3nnc([C@H]4C[C@@H](OC(F)(F)F)C4)o3)(C1)C2)c1cc(C2CC2)on1 [Example 98, 5-cyclopropyl-N-[3-[5-[3-cis-(trifluoromethoxy)cyclobutyl]-1,3,4-oxadiazol-2-yl]-1-bicyclo[1.1.1]pentanyl]isoxazole-3-carboxamide] | 5.00 to 6.00 |  |
| O=C(NC12CC(c3nnc([C@H]4C[C@@H](OC(F)(F)F)C4)o3)(C1)C2)C1=NO[C@@H](c2ccccc2)C1 [Example 99, cis-(R)-5-phenyl-N-(3-(5-(3-(trifluoromethoxy)cyclobutyl)-1,3,4-oxadiazol-2-yl)bicyclo[1.1.1]pentan-1-yl)-4,5-dihydroisoxazole-3-carboxamide] | < 5.00 |  |
| O=C(NC12CC(c3nnc([C@H]4C[C@@H](OC(F)(F)F)C4)o3)(C1)C2)C1=NO[C@H](c2ccccc2)C1 [Example 100, cis-(S)-5-phenyl-N-(3-(5-(3-(trifluoromethoxy)cyclobutyl)-1,3,4-oxadiazol-2-yl)bicyclo[1.1.1]pentan-1-yl)-4,5-dihydroisoxazole-3-carboxamide] | > 6.00 |  |
| O=C(NC12CC(c3nnc([C@H]4C[C@@H](OC(F)(F)F)C4)o3)(C1)C2)c1cc2cccn2cn1 [Example 101, N-[3-[5-[3-cis-(trifluoromethoxy)cyclobutyl]-1,3,4-oxadiazol-2-yl]-1-bicyclo[1.1.1]pentanyl]pyrrolo[1,2-c]pyrimidine-3-carboxamide] | 5.00 to 6.00 |  |
| O=C(NC12CC(c3nnc([C@H]4C[C@@H](OC(F)(F)F)C4)o3)(C1)C2)c1cn2cc(Cl)ccc2n1 [Example 103, 6-chloro-N-[3-[5-[3-cis-(trifluoromethoxy)cyclobutyl]-1,3,4-oxadiazol-2-yl]-1-bicyclo[1.1.1]pentanyl]imidazo[1,2-a]pyridine-2-carboxamide] | > 6.00 |  |
| O=C(NC12CC(c3nnc([C@H]4C[C@@H](OC(F)(F)F)C4)o3)(C1)C2)c1cn2ccc(Cl)cc2n1 [Example 104, 7-chloro-N-[3-[5-[3-cis-(trifluoromethoxy)cyclobutyl]-1,3,4-oxadiazol-2-yl]-1-bicyclo[1.1.1]pentanyl]imidazo[1,2-a]pyridine-2-carboxamide] | > 6.00 |  |
| O=C(COc1cccc(F)c1)NC12CC(c3nnc([C@H]4C[C@@H](OC(F)(F)F)C4)o3)(C1)C2 [Example 105, 2-(3-fluorophenoxy)-N-[3-[5-[3-cis-(trifluoromethoxy)cyclobutyl]-1,3,4-oxadiazol-2-yl]-1-bicyclo[1.1.1]pentanyl]acetamide] | > 6.00 |  |
| O=C(CO[C@H]1C[C@@H](OC(F)(F)F)C1)NC12CC(c3nnc([C@H]4C[C@@H](COC(F)(F)F)C4)o3)(C1)C2 [Example 106, 2-[3-cis-(trifluoromethoxy)cyclobutoxy]-N-[3-[5-[3-cis-(trifluoromethoxymethyl)cyclobutyl]-1,3,4-oxadiazol-2-yl]-1-bicyclo[1.1.1]pentanyl]acetamide] | > 6.00 |  |
| O=C(CO[C@H]1C[C@@H](OC(F)(F)F)C1)NC12CC(c3nnc(C4CC(COC(F)(F)F)C4)o3)(C1)C2 (stereo partly drawn) [Example 107, 2-[3-cis-(trifluoromethoxy)cyclobutoxy]-N-[3-[5-[3-trans-(trifluoromethoxymethyl)cyclobutyl]-1,3,4-oxadiazol-2-yl]-1-bicyclo[1.1.1]pentanyl]acetamide] | > 6.00 |  |
| O=C(NC12CC(c3nnc([C@H]4C[C@@H](OC(F)(F)F)C4)o3)(C1)C2)OCc1ccc(Cl)cc1 [Example 110, (4-chlorophenyl)methyl-N-[3-[5-[3-cis-(trifluoromethoxy)cyclobutyl]-1,3,4-oxadiazol-2-yl]-1-bicyclo[1.1.1]pentanyl]carbamate] | > 6.00 |  |
| O=C(NC12CC(c3nnc([C@H]4C[C@H](OC(F)(F)F)C4)o3)(C1)C2)OCc1ccc(Cl)cc1 [Example 111, (4-chlorophenyl)methyl-N-[3-[5-[3-trans-(trifluoromethoxy)cyclobutyl]-1,3,4-oxadiazol-2-yl]-1-bicyclo[1.1.1]pentanyl]carbamate] | > 6.00 |  |
| O=C(CO[C@@H]1CC[C@H](OC(F)(F)F)C1)NC12CC(c3nnc([C@H]4C[C@@H](OC(F)(F)F)C4)o3)(C1)C2 [Example 114, N-[3-[5-[3-cis-(trifluoromethoxy)cyclobutyl]-1,3,4-oxadiazol-2-yl]-1-bicyclo[1.1.1]pentanyl]-2-[3-cis-(trifluoromethoxy)cyclopentoxy]acetamide] | 5.00 to 6.00 |  |
| O=C(COC1CC2(CC2)C1)NC12CC(c3nnc([C@H]4C[C@@H](OC(F)(F)F)C4)o3)(C1)C2 [Example 115, 2-spiro[2.3]hexan-5-yloxy-N-[3-[5-[3-cis-(trifluoromethoxy)cyclobutyl]-1,3,4-oxadiazol-2-yl]-1-bicyclo[1.1.1]pentanyl]acetamide] | 5.00 to 6.00 |  |
| O=C(COC1CN(CC(F)(F)F)C1)NC12CC(c3nnc([C@H]4C[C@@H](OC(F)(F)F)C4)o3)(C1)C2 [Example 116, 2-[1-(2,2,2-trifluoroethyl)azetidin-3-yl]oxy-N-[3-[5-[3-cis-(trifluoromethoxy)cyclobutyl]-1,3,4-oxadiazol-2-yl]-1-bicyclo[1.1.1]pentanyl]acetamide] | 5.00 to 6.00 |  |
| O=C(COC[C@H]1C[C@@H](OC(F)(F)F)C1)NC12CC(c3nnc([C@H]4C[C@@H](OC(F)(F)F)C4)o3)(C1)C2 [Example 117, 2-[[3-cis-(trifluoromethoxy)cyclobutyl]methoxy]-N-[3-[5-[3-cis-(trifluoromethoxy)cyclobutyl]-1,3,4-oxadiazol-2-yl]-1-bicyclo[1.1.1]pentanyl]acetamide] | 5.00 to 6.00 |  |
| O=C(COC1CC(OC(F)(F)F)C1)NC12CC(c3nnc(-c4cnn(CC(F)(F)F)c4)o3)(C1)C2 (stereo not drawn) [Example 118, N-[3-[5-[1-(2,2,2-trifluoroethyl)pyrazol-4-yl]-1,3,4-oxadiazol-2-yl]-1-bicyclo[1.1.1]pentanyl]-2-[3-cis-(trifluoromethoxy)cyclobutoxy]acetamide] | 5.00 to 6.00 |  |
| O=C(CO[C@H]1C[C@@H](OC(F)(F)F)C1)NC12CC(c3nnc(-c4ccn(CC(F)(F)F)n4)o3)(C1)C2 [Example 119, N-[3-[5-[1-(2,2,2-trifluoroethyl)pyrazol-3-yl]-1,3,4-oxadiazol-2-yl]-1-bicyclo[1.1.1]pentanyl]-2-[3-cis-(trifluoromethoxy)cyclobutoxy]acetamide] | 5.00 to 6.00 |  |
| O=C(COc1ccc(C2CC2)cc1)NC12CC(c3nnc([C@H]4C[C@@H](OC(F)(F)F)C4)o3)(C1)C2 [Example 120, 2-(4-cyclopropylphenoxy)-N-[3-[5-[3-cis-(trifluoromethoxy)cyclobutyl]-1,3,4-oxadiazol-2-yl]-1-bicyclo[1.1.1]pentanyl]acetamide] | > 6.00 |  |
